Data taken from patent publication US12110305B2, “Prodrugs of phosphonamide nucleotide analogues and their pharmaceutical use” (priority 2020, dated 2024).
Values after ≈ are worked out from the molar mass of the structure shown. Where two headings read alike, the source gives them in different places.

Experiments:
HIV-1 (IIIB) = assay: Antiviral (HIV) assay in MT-4 cells; format: cell-based; settings: HIV-1 IIIB in MT-4 cells, 5 days incubation, Cell Titer Glo, average of at least two independent experiments
In short: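 MT-4 cells, infected with HIV-1 IIIB (1:250 dilution of concentrated stock) or mock-infected, were exposed to 1:3 serially diluted compounds in RPMI with 10% FBS. After 5 days at 37° C., CellTiter-Glo luminescence was read. EC50 = concentration causing […], from sigmoidal dose-response fits.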

PBMCs = assay: TFV-DP formation in peripheral blood mononuclear cells (PBMCs); format: in vitro ADME, human; settings: activated PBMCs, 1 μM compound, 50% serum, 2 hrs at 37° C.; intracellular volume 0.2 pL/cell; average of at least two independent experiments
Procedure: Example 109: TFV-DP Formation in Peripheral Blood Mononuclear Cells (PBMCs)
Compounds were tested in a 96-well assay format for the level of TFV-DP loading in PBMCs in the presence of human serum. PBMCs were activated with 100 units/mL recombinant human […] and 2 μg/mL phytohaemagglutinin (PHA) for 36 hrs. After activation, PBMCs (2 million) were incubated with compounds (1 μM) and cell culture media with 50% serum in a 96 well plate for 2 hrs at 37° C. Cells were transferred to a 96 well deep block plate and spun down. Liquid was removed, and cells were washed 2× with 1 mL of 0.9% saline with spin downs between washes. After a final wash and liquid removal, 500 μL of MeOH+200 nM Cl-ATP+200 nM [adenine-^13C5]-tenofovir diphosphate (tetra ammonium salt) was added and thoroughly mixed with the cells. The plate was then spun down and 450 μL of sample was transferred to a new 96 well plate. Supernatants were then evaporated, reconstituted in 80 μl of 1 mM ammonium phosphate and thoroughly vortexed. Blank samples were pooled for serial dilution to construct calibration standards for TFV, TFV-DP and TFV-TP in pmol/million cells. Samples were then transferred to a short-well 96 well plate, centrifuged and injected on an LC-MS/MS for quantification. Values were reported in μM units using an intracellular volume of 0.2 pL/cell.

MT-4 cells = assay: Cytotoxicity assay in MT-4 cells; format: cell-based, human; settings: uninfected MT-4 cells, 5 days; average of at least two independent experiments; read-out: MT4 CC50
Procedure: Compounds were tested in a high-throughput 384-well assay format for their ability to inhibit the replication of HIV-1 (IIIB) in MT-4 cells. Compounds were serially diluted (1:3) in DMSO on 384-well polypropylene plates and further diluted 200-fold into complete RPMI media (10% FBS, 1% P/S) using the Biotek Micro Flow and Labcyte ECHO acoustic dispenser. Each plate contained up to 8 test compounds, with negative (no drug) and positive (5 μM AZT) controls. MT-4 cells were pre-treated with 10 μL of either RPMI (mock-infected) or a fresh 1:250 dilution of HIV-1 IIIB concentrated virus stock. Infected and uninfected MT-4 cells were further diluted in complete RPMI media and added to each plate using a Micro Flow dispenser. After 5 days incubation in a humidified and temperature-controlled incubator (37° C.), Cell Titer Glo (Promega) was added to the assay plates and chemiluminescence read using an Envision plate-reader. EC50 values were defined as the compound concentration that causes a 50% decrease in luminescence signal and were calculated using a sigmoidal dose-response model to generate curve fits and are shown in Table 1.
Example 105: Cytotoxicity Assay in MT-4 Cells
Assays were performed as described in Example 104 except uninfected MT-4 cells were added to each well containing test compound. In addition, 10 μM puromycin was added to the last column of each assay plate to assess a base level of cytotoxicity.

physchem = format: physicochemical; settings: phosphate buffered saline, 26 °C, aqueous buffer, kinetic from dmso stock, pH 7.4 PBS, 1.0% DMSO, 24-hour incubation at ambient temperature
Procedure: Example 108: Kinetic Solubility Analysis
Buffer Preparation: 0.1 N HCl: Hydrochloric acid, 0.1 N standardized solution (MP Biomedicals part number 199569). 1×PBS, pH 7.4: Phosphate Buffered Saline (PBS) solution 10× (Fisher Bioreagent part number BP399-500) 50 mL was added to approximately 450 mL HPLC grade H2O. The volume of the solution was then adjusted to 500 mL for a total dilution factor of 1:10 and a final PBS concentration of 1×.
The final DMSO concentration was 1.0% (v/v) and maximum theoretical compound concentration is 100 μM (for compound stock concentration of 10 mM). The filter plate was sealed. Following 24-hour incubation at ambient temperature (24.2-27.5° C.), the samples were vacuum filtered and the filtrates were collected in a 96 well polypropylene plate for analysis. The collection plate was sealed for analysis. Filtrates were injected into the Antek 8060 chemiluminescent nitrogen detector for quantification. The results are reported in μM.
The filtrates were quantified with respect to this calibration curve. Each calculated solubility value was corrected for background nitrogen present in the DMSO and in the medium used to prepare the sample. All reported values for compounds containing adjacent nitrogen atoms in a ring structure were increased by approximately 25%.

PHHs = assay: TFV-DP formation in primary human hepatocytes (PHHs); format: in vitro ADME; settings: 1 μM compound, 1 hour at 37° C., intracellular volume 3 pL/cell, average of at least two independent experiments
Procedure: Example 110: TFV-DP Formation in Primary Human Hepatocytes (PHHs)
Compounds were tested in a 24-well assay format for the level of TFV-DP formation in PHHs. Cells were seeded (4.0×10^5 cells/well) in collagen coated plates and incubated at 37° C. After 4-6 hours the liquid was removed, 500 μl of new media (2% FBS, 1.5% DMSO) was added, and the cells were incubated at 37° C. overnight. The media is then replaced (2% FBS, 1.0% DMSO), compounds (1 μM) were added and the cells were incubated at 37° C. in the presence of compounds for 1 hour. Media was then removed and cells were washed 2× with 500 μl of 0.9% saline. After a final wash and liquid removal, 500 μL of MeOH+200 nM Cl-ATP+200 nM [adenine-^13C5]-tenofovir diphosphate (tetra ammonium salt) was added and cells were incubated at −80° C. for 30 minutes. The cells were kept on water ice while the MeOH/standard supernatant is pipetted up and down several times and then transferred to a 96 deep-well plate. Supernatants were then evaporated, samples were reconstituted in 80 μl of 1 mM ammonium phosphate and then thoroughly vortexed. Blank samples were pooled for serial dilution to construct calibration standards for TFV, TFV-DP and TFV-TP in pmol/million cells. Samples are then transferred to a short-well 96 well plate, centrifuged and injected on an LC-MS/MS for quantification. […]

[1] = Human immunodeficiency virus 1, MT4, 120 h

SMILES | EC50 (HIV-1 (IIIB); [1]) | EC50 (HIV-1 (IIIB); read-out: MT4 HIV EC50) | Average PBMC TFV-DP (PBMCs) | further results
C[C@H](Cn1cnc2c(N)ncnc21)OCP(=O)(NC(C)(C)C(=O)O[C@H]1CC[C@H](C(C)(C)C)CC1)NC(C)(C)C(=O)O[C@H]1CC[C@H](C(C)(C)C)CC1 [Example 12, Bis(trans-4-(tert-butyl)cyclohexyl) 2,2′-((((((R)-1-(6-amino-9H-purin-9-yl)propan-2-yl)oxy)methyl)phosphoryl)bis(azanediyl))bis(2-methylpropanoate)] | 172 nM | – | – | Average PBMC TFV-DP (μM) (PBMCs): BLQ
C[C@H](Cn1cnc2c(N)ncnc21)OCP(=O)(NC(C)(C)C(=O)OCC1CCC(C)(C)CC1)NC(C)(C)C(=O)OCC1CCC(C)(C)CC1 [Example 13, Bis((4,4-dimethylcyclohexyl)methyl) 2,2′-(((((1-(6-amino-9H-purin-9-yl)propan-2-yl)oxy)methyl)phosphoryl)bis(azanediyl))(R)-bis(2-methylpropanoate)] | – | 16 nM | 2.6 µM | CC50 (MT-4 cells): 5.47 µM
C[C@H](Cn1cnc2c(N)ncnc21)OCP(=O)(NC(C)(C)C(=O)OC1CCOCC1)NC(C)(C)C(=O)OC1CCOCC1 [Example 24, Bis(tetrahydro-2H-pyran-4-yl) 2,2′-(((((1-(6-amino-9H-purin-9-yl)propan-2-yl)oxy)methyl)phosphoryl)bis(azanediyl))(R)-bis(2-methylpropanoate)] | > 500 nM | – | – | Average PBMC TFV-DP (μM) (PBMCs): BLQ
CC(C)CCCOC(=O)C(C)(C)NP(=O)(CO[C@H](C)Cn1cnc2c(N)ncnc21)NC(C)(C)C(=O)OCCCC(C)C [Example 67, Bis(4-methylpentyl) 2,2′-(((((1-(6-amino-9H-purin-9-yl)propan-2-yl)oxy)methyl)phosphoryl)bis(azanediyl))(R)-bis(2-methylpropanoate)] | 8 nM | – | – | solubility kinetic at 24 h (physchem): 38 µg/mL (≈ 60.7 µM)
CCCCCCOC(=O)C(C)(C)NP(=O)(CO[C@H](C)Cn1cnc2c(NC(=O)[C@H]3CCC(=O)O3)ncnc21)NC(C)(C)C(=O)OCCCCCC [Example 96, Dihexyl 2,2′-((((((R)-1-(6-((R)-5-oxotetrahydrofuran-2-carboxamido)-9H-purin-9-yl)propan-2-yl)oxy)methyl)phosphoryl)bis(azanediyl))bis(2-methylpropanoate)] | 11 nM | – | – | –
CCCCCCOC(=O)C(C)(C)NP(=O)(CO[C@H](C)Cn1cnc2c(NC(=O)CCCSC(C)=O)ncnc21)NC(C)(C)C(=O)OCCCCCC [Example 97, Dihexyl 2,2′-(((((1-(6-(4-(acetylthio)butanamido)-9H-purin-9-yl)propan-2-yl)oxy)methyl)phosphoryl)bis(azanediyl))(R)-bis(2-methylpropanoate)] | – | 13 nM | 1.4 µM | CC50 (MT-4 cells): 10.7 µM; Average PHH TFV-DP (PHHs): 1.60 µM
CCCCCCOC(=O)C(C)(C)NP(=O)(CO[C@H](C)Cn1cnc2c(NC(=O)OCC(C)(C)C(=O)OCc3oc(=O)oc3C)ncnc21)NC(C)(C)C(=O)OCCCCCC [Example 98, Dihexyl 2,2′-(((((1-(6-(((2,2-dimethyl-3-((5-methyl-2-oxo-1,3-dioxol-4-yl)methoxy)-3-oxopropoxy)carbonyl)amino)-9H-purin-9-yl)propan-2-yl)oxy)methyl)phosphoryl)bis(azanediyl))(R)-bis(2-methylpropanoate)] | 213 nM | – | – | –
CCCCCCOC(=O)C(C)(C)NP(=O)(CO[C@H](C)Cn1cnc2c(NC(=O)CCCC(=O)OCc3oc(=O)oc3C)ncnc21)NC(C)(C)C(=O)OCCCCCC [Example 99, (5-Methyl-2-oxo-1,3-dioxol-4-yl)methyl 5-[[9-[(2R)-2-[bis[(2-hexoxy-1,1-dimethyl-2-oxo-ethyl)amino]phosphorylmethoxy]propyl]purin-6-yl]amino]-5-oxo-pentanoate] | 91 nM | – | – | –
CCCCCCOC(=O)C(C)(C)NP(=O)(CO[C@H](C)Cn1cnc2c(NC(=O)CC(C)(C)c3c(C)cc(C)cc3OC(C)=O)ncnc21)NC(C)(C)C(=O)OCCCCCC [Example 100, Dihexyl 2,2′-(((((1-(6-(3-(2-acetoxy-4,6-dimethylphenyl)-3-methylbutanamido)-9H-purin-9-yl)propan-2-yl)oxy)methyl)phosphoryl)bis(azanediyl))(R)-bis(2-methylpropanoate)] | – | 22 nM | 1.9 µM | Average PHH TFV-DP (PHHs): 4.73 µM
CCCCCCOC(=O)C(C)(C)NP(=O)(CO[C@H](C)Cn1cnc2c(NC(=O)OC(C)(C)CC(=O)OCc3oc(=O)oc3C)ncnc21)NC(C)(C)C(=O)OCCCCCC [Example 101, Dihexyl 2,2′-(((((1-(6-((((2-methyl-4-((5-methyl-2-oxo-1,3-dioxol-4-yl)methoxy)-4-oxobutan-2-yl)oxy)carbonyl)amino)-9H-purin-9-yl)propan-2-yl)oxy)methyl)phosphoryl)bis(azanediyl))(R)-bis(2-methylpropanoate)] | 12 nM | – | – | –
CCCCCCOC(=O)C(C)(C)NP(=O)(CO[C@H](C)Cn1cnc2c(NC(=O)CC(C)(C)CC(=O)OCc3oc(=O)oc3C)ncnc21)NC(C)(C)C(=O)OCCCCCC [Example 102, Dihexyl 2,2′-(((((1-(6-(3,3-dimethyl-5-((5-methyl-2-oxo-1,3-dioxol-4-yl)methoxy)-5-oxopentanamido)-9H-purin-9-yl)propan-2-yl)oxy)methyl)phosphoryl)bis(azanediyl))(R)-bis(2-methylpropanoate)] | > 500 nM | – | – | Average PBMC TFV-DP (μM) (PBMCs): BLQ
C[C@H](Cn1cnc2c(N)ncnc21)OCP(=O)(NC(C)(C)C(=O)OCCc1ccccc1)NC(C)(C)C(=O)OCCc1ccccc1 [Example 103, Diphenethyl 2,2′-(((((1-(6-amino-9H-purin-9-yl)propan-2-yl)oxy)methyl)phosphoryl)bis(azanediyl))(R)-bis(2-methylpropanoate)] | – | > 500 nM | 0.4 µM | CC50 (MT-4 cells): > 42.5 µM
